Experimental data: patent publication US12252701B2, “Chimeric antigen receptor T cell therapy” (KITE PHARMA, INC., priority 2020, dated 2025)

What was measured:
[1] = cited from earlier work
[2] = test system: CAR-T cells; test: CAR-T cell expansion assay (KIP-1 or CD3/CD28 stimulation); conditions: for % viability: CD3/CD28; for % viabili.: CD3/CD28 stimulation; for % viabi.: KIP-1 stimulation

CC[C@@H]1CN(C(=O)NCC(F)(F)F)C[C@@H]1c1cnc2cnc3[nH]ccc3n12 [upadacitinib]
Cmax ([1]; clinical dosing, patient sera, repeat dose studies): 73.9 ng/mL
Protein binding ([1]; plasma protein binding, reported): ~50%
% viability ([2]; dose 50 nM, day 4): 74.4%
% viability ([2]; dose 50 nM, day 8): 69.5%
% viability ([2]; dose 50 nM, day 12): 80.6%
% viability ([2]; dose 100 nM, day 4): 64.1%
% viability ([2]; dose 100 nM, day 8): 69.2%
% viability ([2]; dose 100 nM, day 12): 66.4%
% viabili. ([2]; 10 nM, Day 0): 84%
% viabili. ([2]; 10 nM, Day 4): 92.6%
% viabili. ([2]; 10 nM, Day 8): 88.4%
% viabili. ([2]; 10 nM, Day 12): 71.6%
% viabili. ([2]; 20 nM, Day 0): 84%
% viabili. ([2]; 20 nM, Day 4): 93.8%
% viabili. ([2]; 20 nM, Day 8): 92%
% viabili. ([2]; 20 nM, Day 12): 72.7%
% viabili. ([2]; 40 nM, Day 0): 84%
% viabili. ([2]; 40 nM, Day 4): 91.4%
% viabili. ([2]; 40 nM, Day 8): 77%
% viabili. ([2]; 40 nM, Day 12): 73.2%
% viabili. ([2]; 60 nM, Day 0): 84%
% viabili. ([2]; 60 nM, Day 4): 90.6%
% viabili. ([2]; 60 nM, Day 8): 90.5%
% viabili. ([2]; 60 nM, Day 12): 76.3%
% viabili. ([2]; 80 nM, Day 0): 84%
% viabili. ([2]; 80 nM, Day 4): 88.3%
% viabili. ([2]; 80 nM, Day 8): 86.4%
% viabili. ([2]; 80 nM, Day 12): 75%
% viabili. ([2]; 100 nM, Day 0): 84%
% viabili. ([2]; 100 nM, Day 4): 84.2%
% viabili. ([2]; 100 nM, Day 8): 84.3%
% viabili. ([2]; 100 nM, Day 12): 72.5%
% viabi. ([2]; 10 nM, Day 0): 84%
% viabi. ([2]; 10 nM, Day 4): 85.2%
% viabi. ([2]; 10 nM, Day 8): 72.1%
% viabi. ([2]; 10 nM, Day 12): 72.7%
% viabi. ([2]; 20 nM, Day 0): 84%
% viabi. ([2]; 20 nM, Day 4): 82.1%
% viabi. ([2]; 20 nM, Day 8): 70.1%
% viabi. ([2]; 20 nM, Day 12): 74.8%
% viabi. ([2]; 40 nM, Day 0): 84%
% viabi. ([2]; 40 nM, Day 4): 79.3%
% viabi. ([2]; 40 nM, Day 8): 59.3%
% viabi. ([2]; 40 nM, Day 12): 73.8%
% viabi. ([2]; 60 nM, Day 0): 84%
% viabi. ([2]; 60 nM, Day 4): 67.9%
% viabi. ([2]; 60 nM, Day 8): 76.4%
% viabi. ([2]; 60 nM, Day 12): 68.9%
% viabi. ([2]; 80 nM, Day 0): 84%
% viabi. ([2]; 80 nM, Day 4): 70.9%
% viabi. ([2]; 80 nM, Day 8): 68.8%
% viabi. ([2]; 80 nM, Day 12): 62.5%
% viabi. ([2]; 100 nM, Day 0): 84%
% viabi. ([2]; 100 nM, Day 4): 59.3%
% viabi. ([2]; 100 nM, Day 8): 60.9%
% viabi. ([2]; 100 nM, Day 12): 61.7%
concentration at and above which severe effects on expansion were seen ([2]; further dose titrations, depending on the mode of stimulation): 20 to 40 nM
